# Test results taken from patent US6737383B1, “Herbicidal oxadiazolidines” (priority 1999, dated 2004).
# How the values were obtained:
# duck salad = test: Test B flood test duck salad; type: in vivo, Heteranthera limosa
# Outline: (§1)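 Read-out is a visual response score from 0 (no effect) to 10 (complete control), assigned by comparison with untreated controls. Treatment was applied at the 2-leaf stage, and plants stayed in the greenhouse for twelve to sixteen days before scoring.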
# surinam grass = test: Test B pre/postemergence surinam grass; type: in vivo, Brachiaria decumbens
# Outline: (§2)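 Response is a visual 0-to-10 score relative to untreated plants, where 0 means no effect and 10 means complete control, taken twelve to sixteen days after application. Treatments went onto soil at planting and onto foliage of 1- to 4-leaf plants, using a surfactant-containing non-phytotoxic solvent.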
# smallflower flatsedge = test: Test B flood test smallflower flatsedge; type: in vivo, Cyperus difformis
# Outline: as §1
# corn = test: Test B pre/postemergence corn; type: in vivo, Zea mays; details: for Corn plant response rating: scale of 0 to 10 where 0 is no effect and 10 is complete control
# Outline: as §2
# purple nutsedge = test: Test B pre/postemergence purple nutsedge; type: in vivo, Cyperus rotundus; details: for Nutsedge plant response rating: scale of 0 to 10 where 0 is no effect and 10 is complete control
# Outline: as §2
# sugar beet = test: Test B pre/postemergence sugar beet; type: in vivo, Beta vulgaris; details: for Sugarbeets plant response rating: scale of 0 to 10 where 0 is no effect and 10 is complete control
# Outline: as §2
# morningglory = test: Test B pre/postemergence morningglory; type: in vivo, Ipomoea hederacea; details: for Morningglory plant response rating: scale of 0 to 10 where 0 is no effect and 10 is complete control
# Outline: as §2
# cocklebur = test: Test B pre/postemergence cocklebur; type: in vivo, Xanthium strumarium; details: for Cocklebur plant response rating: scale of 0 to 10 where 0 is no effect and 10 is complete control
# Outline: as §2
# wheat = test: Test B pre/postemergence wheat; type: in vivo, Triticum aestivum; details: for Wheat plant response rating: scale of 0 to 10 where 0 is no effect and 10 is complete control
# Outline: as §2
# rape = test: Test B pre/postemergence rape; type: in vivo, Brassica napus; details: for Rape plant response rating: scale of 0 to 10 where 0 is no effect and 10 is complete control
# Outline: as §2
# crabgrass = test: Test B pre/postemergence crabgrass; type: in vivo, Digitaria sanguinalis; details: for Crabgrass plant response rating: scale of 0 to 10 where 0 is no effect and 10 is complete control
# Outline: as §2
# blackgrass = test: Test B pre/postemergence blackgrass; type: in vivo, Alopecurus myosuroides
# Outline: as §2
# velvetleaf = test: Test B pre/postemergence velvetleaf; type: in vivo, Abutilon theophrasti; details: for Velvetleaf plant response rating: scale of 0 to 10 where 0 is no effect and 10 is complete control
# Outline: as §2
# giant foxtail = test: Test B pre/postemergence giant foxtail; type: in vivo, Setaria faberii; details: for Giant foxtail plant response rating: scale of 0 to 10 where 0 is no effect and 10 is complete control
# Outline: as §2
# pigweed = test: Test B pre/postemergence pigweed; type: in vivo, Amaranthus retroflexus; details: for Redroot pigweed plant response rating: scale of 0 to 10 where 0 is no effect and 10 is complete control
# Outline: as §2
# rice = test: Test B flood test rice; type: in vivo, Oryza sativa
# Outline: as §1
# [1] = Postemergence (flood test), Rate 125 g/ha, scale 0 to 10, 0 is no effect, 10 is complete control
# [2] = Rate 62 g/ha, Postemergence (flood test species), scale of 0 to 10 where 0 is no effect and 10 is complete control
# [3] = Rate 500 g/ha, listed under Postemergence (flood test species), scale 0 to 10, 0 no effect, 10 complete control
# [4] = Postemergence, Rate 125 g/ha, scale 0 to 10, 0 is no effect, 10 is complete control
# [5] = Preemergence, Rate 62 g/ha, scale 0 to 10 (0 no effect, 10 complete control)
# [6] = Preemergence, Rate 250 g/ha, scale of 0 to 10 where 0 is no effect and 10 is complete control
# [7] = Preemergence, Rate 500 g/ha, scale of 0 to 10 where 0 is no effect and 10 is complete control
# [8] = Rate 62 g/ha, Postemergence, scale of 0 to 10 where 0 is no effect and 10 is complete control
# [9] = Rate 250 g/ha, Postemergence, scale of 0 to 10 where 0 is no effect and 10 is complete control
# [10] = Rate 500 g/ha, Postemergence, scale 0 to 10, 0 no effect, 10 complete control
smiles,measurement,setting,value
CC(C)N(C(=O)n1oc(=O)n(CC2CCCO2)c1=O)c1ccc(F)cc1 (stereo not drawn) [Compound 343],"Plant response rating, Ducksalad",duck salad; [1],0
same,Ducksalad plant response rating,duck salad; [2],0
same,"Plant response rating, Ducksalad",duck salad; [3],0
same,"Plant response rating, B. signalgrass",surinam grass; [4],4
same,"Plant response rating, B. signalgrass",surinam grass; [5],3
same,"B. signalgrass plant response rating (0 to 10 scale, 0 is no effect, 10 is complete control)","surinam grass; Preemergence, Rate 125 g/ha",4
same,B. signalgrass plant response rating,surinam grass; [6],6
same,B. signalgrass plant response rating,surinam grass; [7],8
same,B. signalgrass plant response rating,surinam grass; [8],2
same,"Plant response rating, B. signalgrass",surinam grass; [9],4
same,"Plant response rating, B. signalgrass",surinam grass; [10],7
same,"Plant response rating, S. Flatsedge",smallflower flatsedge; [1],0
same,S. Flatsedge plant response rating,smallflower flatsedge; [2],0
same,"Plant response rating, S. Flatsedge",smallflower flatsedge; [3],0
same,"Plant response rating, Corn",corn; [4],0
same,"Plant response rating, Corn",corn; [5],0
same,Corn plant response rating (0 to 10 scale),"corn; Preemergence, Rate 125 g/ha",0
same,Corn plant response rating,"corn; Preemergence, Rate 250 g/ha",0
same,Corn plant response rating,"corn; Preemergence, Rate 500 g/ha",4
same,Corn plant response rating,"corn; Rate 62 g/ha, Postemergence",0
same,"Plant response rating, Corn",corn; [10],2
same,"Plant response rating, Nutsedge",purple nutsedge; [4],0
same,"Plant response rating, Nutsedge",purple nutsedge; [5],0
same,Nutsedge plant response rating (0 to 10 scale),"purple nutsedge; Preemergence, Rate 125 g/ha",0
same,Nutsedge plant response rating,"purple nutsedge; Preemergence, Rate 250 g/ha",0
same,Nutsedge plant response rating,"purple nutsedge; Preemergence, Rate 500 g/ha",0
same,Nutsedge plant response rating,"purple nutsedge; Rate 62 g/ha, Postemergence",0
same,"Plant response rating, Nutsedge",purple nutsedge; [10],3
same,"Plant response rating, Sugarbeets",sugar beet; [4],0
same,"Plant response rating, Sugarbeets",sugar beet; [5],0
same,Sugarbeets plant response rating (0 to 10 scale),"sugar beet; Preemergence, Rate 125 g/ha",0
same,Sugarbeets plant response rating,"sugar beet; Preemergence, Rate 250 g/ha",1
same,Sugarbeets plant response rating,"sugar beet; Preemergence, Rate 500 g/ha",6
same,Sugarbeets plant response rating,"sugar beet; Rate 62 g/ha, Postemergence",0
same,"Plant response rating, Sugarbeets",sugar beet; [10],3
same,"Plant response rating, Morningglory",morningglory; [4],2
same,"Plant response rating, Morningglory",morningglory; [5],0
same,Morningglory plant response rating (0 to 10 scale),"morningglory; Preemergence, Rate 125 g/ha",2
same,Morningglory plant response rating,"morningglory; Preemergence, Rate 500 g/ha",3
same,Morningglory plant response rating,"morningglory; Rate 62 g/ha, Postemergence",2
same,"Plant response rating, Morningglory",morningglory; [10],9
same,"Plant response rating, Cocklebur",cocklebur; [4],0
same,"Plant response rating, Cocklebur",cocklebur; [5],0
same,Cocklebur plant response rating,"cocklebur; Preemergence, Rate 250 g/ha",0
same,Cocklebur plant response rating,"cocklebur; Preemergence, Rate 500 g/ha",0
same,Cocklebur plant response rating,"cocklebur; Rate 62 g/ha, Postemergence",0
same,"Plant response rating, Cocklebur",cocklebur; [10],4
same,"Plant response rating, Wheat",wheat; [4],4
same,"Plant response rating, Wheat",wheat; [5],0
same,Wheat plant response rating (0 to 10 scale),"wheat; Preemergence, Rate 125 g/ha",0
same,Wheat plant response rating,"wheat; Preemergence, Rate 250 g/ha",0
same,Wheat plant response rating,"wheat; Preemergence, Rate 500 g/ha",5
same,Wheat plant response rating,"wheat; Rate 62 g/ha, Postemergence",2
same,"Plant response rating, Wheat",wheat; [10],5
same,"Plant response rating, Rape",rape; [4],0
same,"Plant response rating, Rape",rape; [5],0
same,Rape plant response rating (0 to 10 scale),"rape; Preemergence, Rate 125 g/ha",0
same,Rape plant response rating,"rape; Preemergence, Rate 250 g/ha",4
same,Rape plant response rating,"rape; Preemergence, Rate 500 g/ha",6
same,Rape plant response rating,"rape; Rate 62 g/ha, Postemergence",0
same,"Plant response rating, Rape",rape; [10],3
same,"Plant response rating, Crabgrass",crabgrass; [4],1
same,"Plant response rating, Crabgrass",crabgrass; [5],6
same,Crabgrass plant response rating (0 to 10 scale),"crabgrass; Preemergence, Rate 125 g/ha",9
same,Crabgrass plant response rating,"crabgrass; Preemergence, Rate 500 g/ha",10
same,Crabgrass plant response rating,"crabgrass; Rate 62 g/ha, Postemergence",1
same,"Plant response rating, Crabgrass",crabgrass; [10],6
same,"Plant response rating, Blackgrass",blackgrass; [4],3
same,"Plant response rating, Blackgrass",blackgrass; [5],7
same,Blackgrass plant response rating (0 to 10 scale),"blackgrass; Preemergence, Rate 125 g/ha",8
same,Blackgrass plant response rating,blackgrass; [6],9
same,Blackgrass plant response rating,blackgrass; [7],10
same,Blackgrass plant response rating,blackgrass; [8],3
same,"Plant response rating, Blackgrass",blackgrass; [9],5
same,"Plant response rating, Blackgrass",blackgrass; [10],6
same,"Plant response rating, Velvetleaf",velvetleaf; [4],0
same,"Plant response rating, Velvetleaf",velvetleaf; [5],5
same,Velvetleaf plant response rating (0 to 10 scale),"velvetleaf; Preemergence, Rate 125 g/ha",6
same,Velvetleaf plant response rating,"velvetleaf; Preemergence, Rate 250 g/ha",7
same,Velvetleaf plant response rating,"velvetleaf; Preemergence, Rate 500 g/ha",7
same,Velvetleaf plant response rating,"velvetleaf; Rate 62 g/ha, Postemergence",0
same,"Plant response rating, Velvetleaf",velvetleaf; [10],5
same,"Plant response rating, Giant foxtail",giant foxtail; [4],7
same,"Plant response rating, Giant foxtail",giant foxtail; [5],10
same,Giant foxtail plant response rating (0 to 10 scale),"giant foxtail; Preemergence, Rate 125 g/ha",10
same,Giant foxtail plant response rating,"giant foxtail; Preemergence, Rate 250 g/ha",10
same,Giant foxtail plant response rating,"giant foxtail; Preemergence, Rate 500 g/ha",10
same,Giant foxtail plant response rating,"giant foxtail; Rate 62 g/ha, Postemergence",7
same,"Plant response rating, Giant foxtail",giant foxtail; [10],9
same,"Plant response rating, Redroot pigweed",pigweed; [4],0
same,"Plant response rating, Redroot pigweed",pigweed; [5],10
same,Redroot pigweed plant response rating (0 to 10 scale),"pigweed; Preemergence, Rate 125 g/ha",10
same,Redroot pigweed plant response rating,"pigweed; Preemergence, Rate 250 g/ha",10
same,Redroot pigweed plant response rating,"pigweed; Preemergence, Rate 500 g/ha",10
same,Redroot pigweed plant response rating,"pigweed; Rate 62 g/ha, Postemergence",0
same,"Plant response rating, Redroot pigweed",pigweed; [10],5
same,"Plant response rating, Rice",rice; [1],0
same,Rice plant response rating,rice; [2],0
same,"Plant response rating, Rice",rice; [3],0
